Tested on: H9^DF hESCs
Test: Bioluminescent imaging of transplanted hESC survival under immunosuppressive drug treatment
Type: in vivo, BALB/c mice
Settings: for BLI signal by post-transplant day 10: single drug treatment groups
Protocol: H1, H9 and H9DF hESCs were initially maintained on top of murine embryonic fibroblasts feeder (MEF) layers as detailed in SI Methods. To prevent contamination of the transplanted hESC population with MEF, hESC colonies were separated from MEF by incubation with dispase (Invitrogen) and subcultured on feeder-free matrigel (hESC qualified, BD Biosciences) coated 6-well plates in mTeSR™ 1 maintenance medium (Stem Cell Technologies) for 2 to 5 passages. MHC expression on hESCs was evaluated by flow cytometry as detailed in SI Methods. Shortly prior to transplantation, hESCs were trypsinated, and resuspended in sterile PBS at 1×10^6 cells per 20 μl. hESC transplantation was performed by direct injection into gastrocnemius muscles of recipient mice (using a 29.5 gauge insulin syringe.
BLI was performed using the Xenogen In Vivo Imaging System as previously described (38). Briefly, mice were anesthetized with isoflurane and D-luciferin was administered intraperitoneally at a dose of 375 mg/kg body weight. At the time of imaging, animals were placed in a light-tight chamber, and photons emitted from luciferase expressing hESCs transplanted into the animals were collected with integration times of 5 sec-5 min, depending on the intensity of the bioluminescence emission. The same mice were scanned repetitively as per the study design. BLI signal was quantified in units of photons per second (Total flux) and presented as Log[photons/sec].

Row | Compound | improvement of hESC survival by addition of MMF (over single TAC and/or SIR treatment) | BLI signal by post-transplant day 10 | BLI signal at day 7 (monotherapy, 1×10^6 H9^DF hESCs in gastrocnemius muscle, NT 4.98±0.04, P<0.05)
1 | COc1c(C)c2c(c(O)c1C/C=C(\C)CCC(=O)OCCN1CCOCC1)C(=O)OC2 [MMF, mycophenolate mofetil] | did not result in significant improvement | decreased to background levels | 
2 | C=CC[C@@H]1/C=C(\C)C[C@H](C)C[C@H](OC)[C@H]2O[C@@](O)(C(=O)C(=O)N3CCCC[C@H]3C(=O)O[C@H](/C(C)=C/[C@@H]3CC[C@@H](O)[C@H](OC)C3)[C@H](C)[C@@H](O)CC1=O)[C@H](C)C[C@@H]2OC [TAC, Tacrolimus] |  | decreased to background levels | 
3 | CO[C@H]1C[C@@H]2CC[C@@H](C)[C@@](O)(O2)C(=O)C(=O)N2CCCC[C@H]2C(=O)O[C@H]([C@H](C)C[C@@H]2CC[C@@H](O)[C@H](OC)C2)CC(=O)[C@H](C)/C=C(\C)[C@@H](O)[C@@H](OC)C(=O)[C@H](C)C[C@H](C)/C=C/C=C/C=C/1C [SIR, sirolimus] |  |  | 6.4±0.29 Log^[photons/sec]
